This experiment addresses TPK enzyme (Homo sapiens (Human), UniProt Q9H3S4). Description: TPK enzyme activity test. Particulars: for Emax: calculated with the effect of DMSO on TPK enzyme activity as 100%; for EC50: promoting effect on TPK enzyme activity. It is filed as biochemical.

The structures appear in SMILES notation. Where a name gives a salt, the structure may show the parent alone. Read-outs that look alike come from different tables or passages of the source.

The term Emax denotes the size of the effect at its maximum, as opposed to the concentration needed. As a reminder, the EC50 is the concentration giving half of the maximal effect. Low values mean greater potency, high ones weaker potency.

TPK enzyme, sequence (Q9H3S4 whole entry): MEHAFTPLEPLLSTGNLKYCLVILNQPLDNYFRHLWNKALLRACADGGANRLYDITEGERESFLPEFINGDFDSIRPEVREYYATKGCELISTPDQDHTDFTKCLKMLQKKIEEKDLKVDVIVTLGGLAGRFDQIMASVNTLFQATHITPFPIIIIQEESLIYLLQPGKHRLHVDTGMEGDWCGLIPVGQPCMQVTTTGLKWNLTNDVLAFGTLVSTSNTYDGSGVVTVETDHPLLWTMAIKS

`COc1ccc2[nH]c(=O)c3c(ccn3CCCN3CCN(c4cccc(C(F)(F)F)c4)CC3)c2c1` [Compound 210, 8-methoxy-3-(3-(4-(3-(trifluoromethyl)phenyl)piperazin-1-yl)propyl)-3,5-dihydro-4H-pyrrolo[2,3-c]quinolin-4-one]: the EC50 is 1.8 µM. Moreover, the Emax (read-out: Emax) was 166%.

On to `Cc1ccc2c(c1)-c1nc(=O)n(CCCN3CCN(c4cccc(Cl)c4Cl)CC3)cc1CO2` [Compound 213, 3-(3-(4-(2,3-dichlorophenyl)piperazin-1-yl)propyl)-9-methyl-3,5-dihydro-2H-chromeno[4,3-d]pyrimidin-2-one], for which it took 0.545 µM to reach a half-maximal effect (EC50). In addition, where the note is “read-out: Emax”, the Emax is 174%.

For the compound `Cc1ccc2c(c1)-c1nc(=O)n(CCC(=O)N3CCN(c4cccc(Cl)c4Cl)CC3)cc1CO2` [Compound 214], the Emax is given as 137.60% and a half-maximal effect (EC50) was put at 2.38 µM.

`Cc1ccc2c(c1)-c1ncn(CCC(=O)N3CCN(c4cccc(C(F)(F)F)c4)CC3)c(=O)c1CC2` [Compound 215, 9-methyl-3-(3-oxo-3-(4-(3-(trifluoromethyl)phenyl)piperazin-1-yl)propyl)-5,6-dihydrobenzo[h]quinazolin-4(3H)-one] showed an EC50 of 1.13 µM. The Emax (read-out: Emax) was 173%.

Regarding `Cc1ccc2ncc3c(=O)n(CCCC(=O)N4CCN(c5cccc(Cl)c5Cl)CC4)cnc3c2c1` [Compound 217, 3-(4-(4-(2,3-dichlorophenyl)piperazin-1-yl)-4-oxobutyl)-9-methylpyrimido[5,4-c]quinolin-4(3H)-one], the EC50 was 1.47 µM. In addition, the Emax (read-out: Emax) was 153%.

Consider `Cc1ccc2ncc3c(=O)n(CCCC(=O)N4CCC(Cc5ccc(F)cc5)CC4)cnc3c2c1` [Compound 218, 3-(4-(4-(4-fluorobenzyl)piperidin-1-yl)-4-oxobutyl)-9-methylpyrimido[5,4-c]quinolin-4(3H)-one], for which the EC50 came out at 0.617 µM.

Compound `Cc1ccc2c(c1)-c1nc(=O)n(CCCC(=O)N3CCC(Cc4ccc(F)cc4)CC3)cc1CO2` [Compound 220, 3-(4-(4-(4-fluorobenzyl)piperidin-1-yl)-4-oxobutyl)-9-methyl-3,5-dihydro-2H-chromeno[4,3-d]pyrimidin-2-one] had an EC50 of 3.89 µM. Further, for the setting “read-out: Emax”, the Emax was 157%.

`O=C(CCn1cnc2c(c1=O)CCCc1ccccc1-2)N1CCN(c2cccc(C(F)(F)F)c2)CC1` [Compound 221, 3-(3-oxo-3-(4-(3-(trifluoromethyl)phenyl)piperazin-1-yl)propyl)-3,5,6,7-tetrahydro-4H-benzo[6,7]cyclohepta[1,2-d]pyrimidin-4-one] showed an EC50 of 1.65 µM. For the setting “read-out: Emax”, the Emax was 154%.

Take `Cc1ccc2c(c1)-c1ncn(CCCC(=O)N3CCCC(Cc4ccc(F)cc4)C3)c(=O)c1CC2` (stereo not shown) [Compound 223, 3-(4-(3-(4-fluorobenzyl)piperidin-1-yl)-4-oxobutyl)-9-methyl-5,6-dihydrobenzo[h]quinazolin-4(3H)-one]: the Emax is 152.22% and a half-maximal response (EC50) required 1.33 µM.

With `Cc1ccc2c(c1)-c1ncn(CCC(=O)N3CCC(Cc4ccc(F)cc4)CC3)c(=O)c1CC2` [Compound 225, 3-(3-(4-(4-fluorobenzyl)piperidin-1-yl)-3-oxopropyl)-9-methyl-5,6-dihydrobenzo[h]quinazolin-4(3H)-one], the EC50 came out at 0.93 µM.

The compound `O=C(CCCn1cnc2c(c1=O)CCCc1ccccc1-2)N1CCN(c2cccc(C(F)(F)F)c2)CC1` [Compound 228, 3-(4-oxo-4-(4-(3-(trifluoromethyl)phenyl)piperazin-1-yl)butyl)-3,5,6,7-tetrahydro-4H-benzo[6,7]cyclohepta[1,2-d]pyrimidin-4-one] showed an EC50 of 2.13 µM. Under “read-out: Emax”, the Emax is 148%.

With `COc1ccc2[nH]c(=O)c3c(ncn3CCCC(=O)N3CCN(c4cccc(Cl)c4Cl)CC3)c2c1` [Compound 231, 3-(4-(4-(2,3-dichlorophenyl)piperazin-1-yl)-4-oxobutyl)-8-methoxy-3,5-dihydro-4H-imidazo[4,5-c]quinolin-4-one], the EC50 amounted to 2.26 µM. Moreover, the Emax (read-out: Emax) was 137%.

Consider `COc1ccc2[nH]c(=O)c3c(c2c1)CN(CCCN1CCN(c2cccc(Cl)c2Cl)CC1)C3` [Compound 235, 2-(3-(4-(2,3-dichlorophenyl)piperazin-1-yl)propyl)-8-methoxy-1,2,3,5-tetrahydro-4H-pyrrolo[3,4-c]quinolin-4-one], for which the EC50 was determined as 0.572 µM. The Emax (read-out: Emax) is 137%.

In turn, `Cc1ccc2[nH]c3c(=O)n(CCCN4CCN(c5cccc(Cl)c5Cl)CC4)cnc3c2c1` [Diformate salt of 52, 3-(3-(4-(2,3-dichlorophenyl)piperazin-1-yl)propyl)-8-methyl-3,5-dihydro-4H-pyrimido[5,4-b]indol-4-one] registered an EC50 of 1.28 µM. For the setting “read-out: Emax”, the Emax is 195%.

`Cc1ccc2[nH]c3c(=O)n(CCCCN4CCN(c5cccc(C(F)(F)F)c5)CC4)cnc3c2c1` [Formate salt of 48, 8-methyl-3-(4-(4-(3-(trifluoromethyl)phenyl)piperazin-1-yl)butyl)-3,5-dihydro-4H-pyrimido[5,4-b]indol-4-one]: the EC50 turned out to be 1.06 µM. For the same compound, the Emax (read-out: Emax) is 210%.

`COC(=O)C1CCCCN1CCCN1c2ccccc2Sc2ccccc21` (stereo not shown) [Formate salt of 191, methyl 1-(3-(10H-phenothiazin-10-yl)propyl)piperidin-2-carboxylate] came in with an EC50 of 5.6 µM. Further, the Emax (read-out: Emax) was 131%.

`O=c1c2c(ncn1CCCN1CCN(c3cccc(Cl)c3Cl)CC1)-c1ccccc1CCC2` [Formate salt of 222, 3-(3-(4-(2,3-dichlorophenyl)piperazin-1-yl)propyl)-3,5,6,7-tetrahydro-4H-benzo[6,7]cyclohepta[1,2-d]pyrimidin-4-one Formate]: the Emax is 143% and the EC50 is 0.5 µM.

As to `Cc1ccc2c(c1)N1CCCC(C(=O)NCCCN3CCN(c4cccc(C(F)(F)F)c4)CC3)C1CO2` (stereo not shown) [Formate salt of 232, 2-methyl-N-(3-(4-(3-trifluoromethylphenyl)piperazin-1-yl)propyl)-6,6a,7,8,9,10-hexahydrobenzo[b]pyrido[1,2-d][1,4]oxazine-7-carboxamide Formate], the Emax is 136% and the EC50 is 1.81 µM.

Source of the values: patent US20250388584A1, “TPK AGONIST AND METHOD FOR TREATING NEURODEGENERATIVE DISEASES USING SAME” (SHANGHAI RAISING PHARMACEUTICAL CO., LTD., priority 2022, published 2025).
